Reference: patent publication US8003649B2 (AstraZeneca AB, priority 2007, dated 2011)

Target: T1, Androgen Receptor (AR) (Homo sapiens, UniProt P10275, T878A)
T1 construct: cell based immuno-fluorescence assay using the LNCaP prostate epithelial cell line; endogenous in cells; host or cells: LNCaP clone FGC (ATCC CRL-1740)
T1 sequence (P10275 1-920 T878A): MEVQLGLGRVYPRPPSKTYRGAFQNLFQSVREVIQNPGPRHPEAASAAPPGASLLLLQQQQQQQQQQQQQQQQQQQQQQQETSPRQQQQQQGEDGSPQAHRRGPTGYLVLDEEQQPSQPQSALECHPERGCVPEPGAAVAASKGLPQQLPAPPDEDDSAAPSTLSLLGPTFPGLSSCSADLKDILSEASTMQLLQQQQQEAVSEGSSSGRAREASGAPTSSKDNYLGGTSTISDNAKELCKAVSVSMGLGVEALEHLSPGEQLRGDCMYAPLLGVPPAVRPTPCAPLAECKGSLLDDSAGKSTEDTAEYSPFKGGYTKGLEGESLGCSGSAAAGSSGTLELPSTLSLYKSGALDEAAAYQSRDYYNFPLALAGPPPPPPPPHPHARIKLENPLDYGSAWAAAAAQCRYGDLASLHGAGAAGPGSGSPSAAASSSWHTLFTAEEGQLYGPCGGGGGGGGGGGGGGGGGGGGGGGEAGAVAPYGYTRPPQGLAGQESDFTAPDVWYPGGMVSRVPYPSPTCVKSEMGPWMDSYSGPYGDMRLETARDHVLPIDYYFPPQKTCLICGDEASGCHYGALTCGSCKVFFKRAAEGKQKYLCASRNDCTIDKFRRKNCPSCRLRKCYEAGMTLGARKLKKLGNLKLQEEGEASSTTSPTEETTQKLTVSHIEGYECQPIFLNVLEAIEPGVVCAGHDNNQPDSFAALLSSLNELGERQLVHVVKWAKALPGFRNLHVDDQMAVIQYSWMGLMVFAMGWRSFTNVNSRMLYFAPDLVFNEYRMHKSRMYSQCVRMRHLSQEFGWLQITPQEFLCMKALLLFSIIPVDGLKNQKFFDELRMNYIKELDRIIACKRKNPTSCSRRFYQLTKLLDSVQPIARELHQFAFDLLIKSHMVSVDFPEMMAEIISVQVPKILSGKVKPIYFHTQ
Experiment: LNCaP Androgen Receptor Down-regulation Cell Assay (immunofluorescence end point)
Type: cell-based
Conditions: LNCaP prostate carcinoma cells, compound incubation 20-22 hours, 50% reduction of the AR signal; read-out: Androgen Receptor Down-regulation Assay (a) IC50/μM
Method in brief: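 LNCaP cells in medium with 5% charcoal-stripped FBS were plated overnight, then treated with a compound dilution series for 20-22 h at 37° C. After fixation, permeabilisation and immunostaining, AR-associated green fluorescence was quantified by laser-scanning microplate cytometry; AR down-regulation expressed as IC50 from fitted dose-response curves.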

SMILES	DC50 [µM]
Fc1cccc(OC2CCN(c3ccc4nnc(C(F)(F)F)n4n3)CC2)c1 [Example 532]	0.98
O=C(c1ccccc1)C1CCN(c2ccc3nnc(C(F)(F)F)n3n2)CC1 [Example 533]	2.3
O=C(c1ccc(F)cc1)C1CCN(c2ccc3nnc(C(F)(F)F)n3n2)CC1 [Example 534]	2.3
FC(F)(F)c1nnc2ccc(N3CCC(Cc4ccccc4)CC3)nn12 [Example 535]	1.9
Fc1ccc(CC2CCN(c3ccc4nnc(C(F)(F)F)n4n3)CC2)cc1 [Example 536]	1.4
FC(F)(F)c1nnc2ccc(N3CCC(Cc4ccccn4)CC3)nn12 [Example 537]	3
FC(F)(F)c1nnc2ccc(N3CCC(Cc4ccncc4)CC3)nn12 [Example 538]	2.3
FC(F)(F)c1nnc2ccc(N3CCC(Cc4cccnc4)CC3)nn12 [Example 539]	1.5
FC(F)(F)c1nnc2ccc(N3CCC(c4ccncc4)CC3)nn12 [Example 540]	1.5
FC(F)(F)c1nnc2ccc(N3CCC(n4ccc5ccccc54)CC3)nn12 [Example 542]	2.6
FC(F)(F)c1nnc2ccc(N3CCC(Oc4cnccn4)CC3)nn12 [Example 544]	2.9
FC(F)(F)c1nnc2ccc(N3CCC(Oc4ccncc4)CC3)nn12 [Example 545]	3.6
OC1(Cc2ccccc2)CCN(c2ccc3nnc(C(F)(F)F)n3n2)CC1 [Example 548]	2.2
OC1(c2ccccc2F)CCN(c2ccc3nnc(C(F)(F)F)n3n2)CC1 [Example 549]	1.6
OC1(c2ccncc2)CCN(c2ccc3nnc(C(F)(F)F)n3n2)CC1 [Example 550]	7.2
Fc1ccc(C2=CCN(c3ccc4nnc(C(F)(F)F)n4n3)CC2)cc1 [Example 552]	7.8
FC(F)(F)c1nnc2ccc(N3C[C@H]4CC[C@@H](C3)N4Cc3cccnc3)nn12 [Example 553, 6-[(1R,5S)-8-(pyridin-3-ylmethyl)-3,8-diazabicyclo[3.2.1]oct-3-yl]-3-(trifluoromethyl)[1,2,4]triazolo[4,3-b]pyridazine]	2.6
Fc1ccc(CN[C@H]2[C@@H]3CN(c4ccc5nnc(C(F)(F)F)n5n4)C[C@@H]32)cc1 [Example 554, (1α,5α,6α) N-(4-fluorobenzyl)-3-[3-(trifluoromethyl)[1,2,4]triazolo[4,3-b]pyridazin-6-yl]-3-azabicyclo[3.1.0]hexan-6-amine]	4.9
FC(F)(F)c1nnc2ccc(N3C[C@@H]4[C@H](C3)[C@H]4NCc3cccc(Cl)c3)nn12 [Example 555]	1.4
Fc1cccc(CN[C@H]2[C@@H]3CN(c4ccc5nnc(C(F)(F)F)n5n4)C[C@@H]32)c1 [Example 556]	4.4
FC(F)(F)c1nnc2ccc(N3CCC(COc4ncccn4)CC3)nn12 [Example 558]	2.6
FC(F)(F)c1nnc2ccc(N3CCC(COc4cccnc4)CC3)nn12 [Example 560]	8.8
FC(F)(F)c1nnc2ccc(N3CCC(COc4ccncc4)CC3)nn12 [Example 561]	2.9
FC(F)(F)c1nnc2ccc(N3CCC(COc4cccc(Cl)n4)CC3)nn12 [Example 562, 6-[4-[[(6-chloropyridin-2-yl)oxy]methyl]piperidin-1-yl]-3-(trifluoromethyl)[1,2,4]triazolo[4,3-b]pyridazine]	2
C[C@@H]1CN(c2ccc3nnc(C(F)(F)F)n3n2)CCN1Cc1cccnc1 [Example 564, 6-[(3R)-3-methyl-4-(pyridin-3-ylmethyl)piperazin-1-yl]-3-(trifluoromethyl)[1,2,4]triazolo[4,3-b]pyridazine]	6.7
C[C@@H]1CN(c2ccc3nnc(C(F)(F)F)n3n2)CCN1Cc1ccc(C#N)cc1 [Example 565]	3.5
C[C@@H]1CN(c2ccc3nnc(C(F)(F)F)n3n2)CCN1Cc1cc(F)cc(F)c1 [Example 567]	> 16
C[C@@H]1CN(c2ccc3nnc(C(F)(F)F)n3n2)CCN1Cc1ccc(F)cc1 [Example 568]	3.3

Further lines, results first:

DC50 [µM]	SMILES
2.7	C[C@@H]1CN(c2ccc3nnc(C(F)(F)F)n3n2)CCN1Cc1ccc(F)c(C#N)c1 [Example 569]
4.5	C[C@H]1CN(c2ccc3nnc(C(F)(F)F)n3n2)CCN1Cc1cccnc1 [Example 570, 6-[(3S)-3-methyl-4-(pyridin-3-ylmethyl)piperazin-1-yl]-3-(trifluoromethyl)[1,2,4]triazolo[4,3-b]pyridazine]
0.96	C[C@H]1CN(c2ccc3nnc(C(F)(F)F)n3n2)CCN1Cc1ccc(C#N)cc1 [Example 571]
3.4	C[C@H]1CN(c2ccc3nnc(C(F)(F)F)n3n2)CCN1Cc1ccc(F)c(F)c1 [Example 572]
2.5	C[C@H]1CN(c2ccc3nnc(C(F)(F)F)n3n2)CCN1Cc1ccc(F)c(C#N)c1 [Example 575]
5	FC(F)(F)c1nnc2ccc(N3CC[C@@H](Oc4cccnc4)C3)nn12 [Example 576, 6-[(3R)-3-(pyridin-3-yloxy)pyrrolidin-1-yl]-3-(trifluoromethyl)[1,2,4]triazolo[4,3-b]pyridazine]
5	FC(F)(F)c1nnc2ccc(N3CC[C@@H](Oc4ccncc4)C3)nn12 [Example 577, 6-[(3R)-3-(pyridin-4-yloxy)pyrrolidin-1-yl]-3-(trifluoromethyl)[1,2,4]triazolo[4,3-b]pyridazine]
2.5	FC(F)(F)c1nnc2ccc(N3CC[C@@H](Oc4ccccn4)C3)nn12 [Example 578, 6-[(3R)-3-(pyridin-2-yloxy)pyrrolidin-1-yl]-3-(trifluoromethyl)[1,2,4]triazolo[4,3-b]pyridazine]
4.1	FC(F)(F)c1ccc(O[C@@H]2CCN(c3ccc4nnc(C(F)(F)F)n4n3)C2)cc1 [Example 579]
2	N#Cc1ccc(O[C@@H]2CCN(c3ccc4nnc(C(F)(F)F)n4n3)C2)cc1 [Example 580]
3.3	Fc1ccc(O[C@@H]2CCN(c3ccc4nnc(C(F)(F)F)n4n3)C2)cc1 [Example 581]
2.4	COc1ccc(O[C@@H]2CCN(c3ccc4nnc(C(F)(F)F)n4n3)C2)cc1 [Example 582]
4.1	FC(F)(F)c1cccc(O[C@@H]2CCN(c3ccc4nnc(C(F)(F)F)n4n3)C2)c1 [Example 583]
2.8	N#Cc1cccc(O[C@@H]2CCN(c3ccc4nnc(C(F)(F)F)n4n3)C2)c1 [Example 584]
1.5	Fc1cccc(O[C@@H]2CCN(c3ccc4nnc(C(F)(F)F)n4n3)C2)c1 [Example 585]
2.1	COc1cccc(O[C@@H]2CCN(c3ccc4nnc(C(F)(F)F)n4n3)C2)c1 [Example 586]
> 17	FC(F)(F)c1nnc2ccc(N3CC[C@H](Oc4cccnc4)C3)nn12 [Example 587, 6-[(3S)-3-(pyridin-3-yloxy)pyrrolidin-1-yl]-3-(trifluoromethyl)[1,2,4]triazolo[4,3-b]pyridazine]
5.3	FC(F)(F)c1nnc2ccc(N3CC[C@H](Oc4ccncc4)C3)nn12 [Example 588, 6-[(3S)-3-(pyridin-4-yloxy)pyrrolidin-1-yl]-3-(trifluoromethyl)[1,2,4]triazolo[4,3-b]pyridazine]
4.8	FC(F)(F)c1nnc2ccc(N3CC[C@H](Oc4ccccn4)C3)nn12 [Example 589, 6-[(3S)-3-(pyridin-2-yloxy)pyrrolidin-1-yl]-3-(trifluoromethyl)[1,2,4]triazolo[4,3-b]pyridazine]
